The values below come from ChEMBL document CHEMBL1136795, “A computational model of binding thermodynamics: the design of cyclin-dependent kinase 2 inhibitors” (J Med Chem, 2003).

Broadly, the IC50 is the concentration needed to halve the response being measured. Read a high IC50 as a need for much substance.

In the experiment the target is Cyclin-dependent kinase 2 (Homo sapiens, UniProt P24941). Nature of the experiment: Inhibition of Cyclin-dependent kinase 2 (CDK2).

`CN1CCC(c2c(O)cc(O)c3c(=O)cc(Sc4ccccc4Cl)oc23)C(O)C1` (stereo unspecified) came in with an IC50 of 2100 nM.
